Test results from patent EP0942911B1, “BENZOPYRANOPYRROLE AND BENZOPYRANOPYRIDINE ALPHA-1 ADRENERGIC COMPOUNDS” (Abbott Laboratories, priority 1996, dated 1998).
Counter-ions that a name gives are not always drawn. Like-named read-outs stand apart in the source and are kept apart here.

What was measured:
Assay in all cases: biochemical
α-1b adrenoreceptor = biological target: T1, α-1b adrenoreceptor (Mesocricetus auratus, UniProt P18841); type: binding, hamster; settings: read-out: Radioligand Binding (Ki, nM) 1b (Hamster)
T1 sequence (P18841 1-515): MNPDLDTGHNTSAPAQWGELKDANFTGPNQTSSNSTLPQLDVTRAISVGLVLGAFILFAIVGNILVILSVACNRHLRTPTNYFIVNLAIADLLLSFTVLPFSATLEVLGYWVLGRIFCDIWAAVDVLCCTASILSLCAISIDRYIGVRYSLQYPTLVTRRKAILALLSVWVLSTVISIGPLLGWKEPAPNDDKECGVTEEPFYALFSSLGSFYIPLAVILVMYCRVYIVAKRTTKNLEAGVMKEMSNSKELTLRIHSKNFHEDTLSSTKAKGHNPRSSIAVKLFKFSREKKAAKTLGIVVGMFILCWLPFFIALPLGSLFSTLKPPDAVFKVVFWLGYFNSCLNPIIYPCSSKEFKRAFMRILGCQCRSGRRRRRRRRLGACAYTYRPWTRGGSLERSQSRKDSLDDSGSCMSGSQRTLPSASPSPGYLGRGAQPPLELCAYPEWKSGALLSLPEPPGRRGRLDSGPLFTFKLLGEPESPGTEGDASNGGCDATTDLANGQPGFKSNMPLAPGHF
Text: (§1) The cDNA clones encoding the α-1 adrenoreceptors (α-1a, α-1b, and α-1d) were obtained from TULCO (Triangle Universities Licensing Consortium, Research Triangle Park, NC) and inserted into the eukaryotic expression vector SnaB30. In this vector, expression of the adrenoreceptor gene is under the transcriptional control of an SV40 early promoter. Positive drug selection is provided by a neomycin-resistance gene. Mouse fibroblast cells (LTK) were transfected with the α1 expression plasmids and grown in Dulbecco's modified Eagle's medium (DMEM) containing 10% fetal calf serum and 30 µM G418. Stable G418-resistant parental lines were generated, with successful expression of adrenoreceptor protein monitored using radioligand binding techniques. Stable single cell clones derived from the parental lines were screened in adrenoreceptor binding assays to identify clones having high adrenoreceptor density. Roller bottle cultures of the cloned lines were used to provide cell membranes for subsequent adrenoreceptor binding characterization studies. A cell line containing the SnaB30 vector expressing the human erythropoietin gene served as a negative control.
(§2) For adrenoreceptor binding assays, large scale membrane preparations were utilized in which 6 million cells were seeded into small (450 cm^2) Corning tissue culture roller bottles. 200 mL of DMEM containing 10% fetal calf serum and 300 µM G418 were added to each roller bottle. A 95% air / 5% CO2 gas mixture (sterile) was injected into each roller bottle prior to sealing. The bottles were then incubated at 37 °C on a roller rack for 5 days. Cells were re-fed with fresh medium after 3 days in culture.
(§3) On the fifth day of culture, growth medium was removed from cells grown in roller bottles, and the cells were washed twice with PBS (Sigma, 120 mM NaCl, 2.7 mM KCl, 10 mM Na2HPO4-NaH2PO4, pH = 7.4). Cells were detached from the roller bottles by incubating for 15 minutes at 37 °C in a Tris-EDTA solution (10 mM Tris, 100 mM NaCl, 1 mM EDTA, pH = 7.4). The cell suspension from each roller bottle was decanted into tared centrifuge tubes and kept on ice. An aliquot of each cell suspension was generally taken for cell counting. Cells were centrifuged at 3000 X G for 5 min at 2-4 °C, washed with PBS and recentrifuged. The supernatant was decanted and the pellet weighed to determine the wet weight of cells. Cells were washed a final time in 40 vol 5 mM Tris-HCl, 5 mM EDTA, pH = 7.7, and centrifuged at 40,000 X G for 10 minutes. Cells were homogenized in 10 mL of 50 mM Tris-HCl, 5 mM EDTA (pH = 7.4) and diluted to 40 mL/tube. Homogenates were centrifuged at 40,000 X G for 10 minutes. The supernatant was decanted and the pellets rehomogenized in 50 mM Tris-HCl (pH = 7.4) and centrifuged as before. The supernatant was decanted and the homogenate resuspended in 6.25 volumes (per gram wet weight) of 50 mM Tris-HCl and aliquots of the pooled homogenates frozen in liquid N2 and stored at -70 °C until the time of assay. Rat submaxillary glands were used for α-1A adrenoreceptors and were prepared essentially as described (Michel, A. D., Loury, D. N. and Whiting, R. L., Brit. J. Pharmacol. 98: 83-889 (1989)).
(§4) Receptor binding assays for α-1 adrenoreceptors were performed essentially as described by Greengrass and Bremner (Eur. J. Pharmacol. 55: 323-326 (1979)). […] Radioactivity was determined by standard liquid scintillation techniques. Data were analyzed as previously described (Hancock, A. A., Kyncl, J. J., Martin, Y. C. and DeBernardis, J. F., J. Receptor Res. 8: 23-46 (1988)).

α-1a adrenoreceptor = biological target: T2, α-1a adrenoreceptor (Bos taurus, UniProt P18130); type: binding, bovine; settings: read-out: Radioligand Binding (Ki, nM) 1a (Bovine)
T2 sequence (P18130 1-466): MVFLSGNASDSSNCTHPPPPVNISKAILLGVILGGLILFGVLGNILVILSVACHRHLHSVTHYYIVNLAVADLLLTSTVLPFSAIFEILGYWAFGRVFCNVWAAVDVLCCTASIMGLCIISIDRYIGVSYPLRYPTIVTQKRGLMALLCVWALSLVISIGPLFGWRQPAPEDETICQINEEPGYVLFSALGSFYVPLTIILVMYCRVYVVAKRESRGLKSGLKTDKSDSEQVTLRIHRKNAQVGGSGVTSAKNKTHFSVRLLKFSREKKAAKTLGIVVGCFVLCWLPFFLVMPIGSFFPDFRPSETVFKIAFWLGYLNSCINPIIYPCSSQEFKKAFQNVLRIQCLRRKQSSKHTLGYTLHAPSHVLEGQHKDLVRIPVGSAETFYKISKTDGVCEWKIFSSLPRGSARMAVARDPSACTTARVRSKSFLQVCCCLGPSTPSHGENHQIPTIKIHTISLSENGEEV
Text: as §1, §2, §3, §4

[1] = biological target: T3, α-1A adrenoreceptor (rat submaxillary gland) (Rattus norvegicus, UniProt P43140); type: binding; settings: read-out: Radioligand Binding (Ki, nM) 1A (Rat)
T3 sequence (P43140 1-466): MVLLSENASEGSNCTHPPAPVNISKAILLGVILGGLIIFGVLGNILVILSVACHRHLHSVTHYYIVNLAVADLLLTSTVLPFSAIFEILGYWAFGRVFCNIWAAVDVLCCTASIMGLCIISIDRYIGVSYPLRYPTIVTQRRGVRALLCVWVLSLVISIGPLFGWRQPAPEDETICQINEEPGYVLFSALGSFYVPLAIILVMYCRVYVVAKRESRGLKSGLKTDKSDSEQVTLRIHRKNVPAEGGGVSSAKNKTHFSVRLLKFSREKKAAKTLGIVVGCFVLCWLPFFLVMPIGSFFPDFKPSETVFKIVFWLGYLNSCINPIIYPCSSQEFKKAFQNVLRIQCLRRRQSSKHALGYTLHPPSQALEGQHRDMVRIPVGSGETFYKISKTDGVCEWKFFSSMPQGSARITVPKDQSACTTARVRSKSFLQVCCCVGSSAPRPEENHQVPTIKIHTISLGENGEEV
Protocol: Additionally, binding affinity against the pharrnacologically defined α-1A adrenoreceptor (rat submaxillary gland) was measured.
as §3, §4

α-1d adrenoreceptor = biological target: T4, α-1d adrenoreceptor (Rattus norvegicus, UniProt P23944); type: binding; settings: read-out: Radioligand Binding (Ki, nM) 1d (Rat)
T4 sequence (P23944 1-561): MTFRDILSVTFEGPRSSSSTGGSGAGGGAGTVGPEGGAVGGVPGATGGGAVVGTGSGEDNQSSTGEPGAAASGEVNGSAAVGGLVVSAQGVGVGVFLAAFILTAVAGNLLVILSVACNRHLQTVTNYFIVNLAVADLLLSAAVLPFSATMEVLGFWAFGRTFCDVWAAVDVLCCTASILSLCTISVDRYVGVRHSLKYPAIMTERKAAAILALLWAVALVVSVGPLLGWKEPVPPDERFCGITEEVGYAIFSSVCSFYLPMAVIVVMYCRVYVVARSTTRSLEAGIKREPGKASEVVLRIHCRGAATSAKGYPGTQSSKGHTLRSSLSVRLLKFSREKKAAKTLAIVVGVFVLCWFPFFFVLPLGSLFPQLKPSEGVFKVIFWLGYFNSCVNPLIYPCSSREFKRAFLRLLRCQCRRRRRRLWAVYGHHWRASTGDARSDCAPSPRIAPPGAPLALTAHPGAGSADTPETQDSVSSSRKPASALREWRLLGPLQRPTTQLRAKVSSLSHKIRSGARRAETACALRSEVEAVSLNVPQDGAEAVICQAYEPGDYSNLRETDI
Text: as §1, §2, §3, §4

[2] = [3H]-prazosin radioligand, cloned receptor in LTK cell membranes

Row | Molecule | Ki (α-1b adrenoreceptor; [2]) | Ki (α-1a adrenoreceptor; [2]) | Ki ([1]; [3H]-prazosin radioligand, rat submaxillary gland membranes) | Ki (α-1d adrenoreceptor; [2]) | Ki (α-1b adrenoreceptor) | Ki (α-1a adrenoreceptor) | Ki [1] | Ki (α-1d adrenoreceptor)
1 | 3-[2-((±)-trans-10-Methoxy-1,3,4,4a,5,10b-hexahydro-2H-[1]-benzopyrano[3,4-c]pyrido-3-yl)ethyl]-6,7-dimethoxy-quinazoline-2,4(1H,3H)-dione hydrochloride [Example 91] | 1.46 nM | 0.066 nM | 0.102 nM | 0.495 nM | – | – | – | –
2 | O=c1[nH]c2c(sc3cccnc32)c(=O)n1CCCCN1C[C@@H]2COc3ccccc3[C@H]2C1 (racemic) [Example 71, 3-[4-((±)-trans-1,2,3,3a,4,9b-hexahydro-[1]-benzopyrano[3,4-c]pyrrol-2-yl)butyl]-pyrido[2',3':4,5]thieno[3,2-d]pyrimidine-2,4(1H,3H)-dione hydrochloride] | – | – | – | – | 0.634 nM | 0.068 nM | 0.065 nM | 0.169 nM
3 | COc1cccc2c1[C@H]1CN(CCCCn3c(=O)[nH]c4c(sc5cccnc54)c3=O)C[C@@H]1CO2 (racemic) [Example 72, 3-[4-((±)-trans-9-Methoxy-1,2,3,3a,4,9b-hexahydro-[1]-benzopyrano[3,4-c]pyrrol-2-yl)butyl]-pyrido[2',3':4,5]thieno[3,2-d]pyrimidine-2,4(1H,3H)-dione dihydrochloride] | – | – | – | – | 3.54 nM | 0.133 nM | 0.107 nM | 0.804 nM
4 | COc1cccc2c1[C@@H]1CN(CCCCn3c(=O)[nH]c4c(sc5cccnc54)c3=O)C[C@@H]1CO2 (racemic) [Example 73, 3-[4-((±)-cis-9-Methoxy-1,2,3,3a,4,9b-hexahydro-[1]-benzopyrano[3,4-c]pyrrol-2-yl)butyl]-pyrido[2',3':4,5]thieno[3,2-d]pyrimidine-2,4[1H,3H)-dione dihydrochloride] | – | – | – | – | 1.31 nM | 0.038 nM | 0.087 nM | 0.187 nM
5 | COc1ccc2c(c1)[C@@H]1CN(CCCCn3c(=O)[nH]c4c(sc5ncccc54)c3=O)C[C@@H]1CO2 (racemic) [Example 75, 3-[4-((±)-cis-8-Methoxy-1,2,3,3a,4,9b-hexahydro-[1]-benzopyrano[3,4-c]pyrrol-2-yl)butyl]-pyrido[3',2':4,5]thieno[3,2-d]pyrimidine-2,4(1H,3H)-dione dihydrochloride] | – | – | – | – | 52.1 nM | 1.89 nM | 5.73 nM | 18.3 nM
6 | COc1ccc2c(c1)[C@@H]1CN(CCCCn3c(=O)[nH]c4c(sc5nccnc54)c3=O)C[C@@H]1CO2 (racemic) [Example 76, 3-[4-((±)-cis-8-Methoxy-1,2,3,3a,4,9b-hexahydro-[1]-benzopyrano[3,4-c]pyrrol-2-yl)butyl]-pyrazino[2',3':4,5]thieno[3,2-d]pyrimidine-2,4(1H,3H)-dione hydrochloride] | – | – | – | – | 78.6 nM | 6.21 nM | 11.7 nM | 12.9 nM
7 | COc1ccc2c(c1)[C@@H]1CN(CCCn3c(=O)[nH]c4c(sc5ncccc54)c3=O)C[C@@H]1CO2 (racemic) [Example 77, 3-[3-((±)-cis-8-Methoxy-1,2,3,3a,4,9b-hexahydro-[1]-benzopyrano[3,4-c]pyrrol-2-yl)propyl]-pyrido[3',2':4,5]thieno[3,2-d]pyrimidine-2,4(1H,3H)-dione hydrochloride] | – | – | – | – | – | 27 nM | 99.7 nM | 106 nM
8 | COc1ccc2c(c1)[C@@H]1CN(CCn3c(=O)[nH]c4c(sc5ncccc54)c3=O)C[C@@H]1CO2 (racemic) [Example 78, 3-[2-((±)-cis-8-Methoxy-1,2,3,3a,4,9b-hexahydro-[1]-benzopyrano[3,4-c]pyrrol-2-yl)ethyl]-pyrido[3',2':4,5]thieno[3,2-d]pyrimidine-2,4(1H,3H)-dione hydrochloride] | – | – | – | – | 1.88 nM | 0.122 nM | 0.297 nM | 0.478 nM
9 | COc1cc2[nH]c(=O)n(CCCCN3C[C@@H]4COc5cccc(OC)c5[C@@H]4C3)c(=O)c2cc1OC (racemic) [Example 79, 3-[4-((±)-cis-9-Methoxy-1,2,3,3a,4,9b-hexahydro-[1]-benzopyrano[3,4-c]pyrrol-2-yl)butyl]-6,7-dimethoxy-quinazoline-2,4(1H,3H)-dione hydrochloride] | – | – | – | – | 0.821 nM | 0.174 nM | 0.199 nM | 0.361 nM
